Measured values taken from paper PMC10046687, “Residues of Legume AG41 Peptide Crucial to Its Bio-Insecticidal Activity” (Biomolecules, 2023).
Read-outs that look alike come from different tables or passages of the source. Bridge positions count the residues as written; N and C are the ends. Ends that are not written are not given here.

Assays:
PA1b receptor = test: Competitive ligand binding with 125I-PA1b on microsomal protein; conditions: competition with 0.4 nM 125I-PA1b, 20 µg microsomal protein per assay, peptide 0.01 to 1000 nM, mean ± standard error, read-out: Ki (affinity to the PA1b receptor)
Method: To evaluate the affinity of synthetic AG41 and its mutants to PA1b receptor, ligand binding studies were conducted ^125I-toxin [29]. […] Total binding was assessed using 20 µg per assay of microsomal protein (sedimenting at 45,000 g) and 0.4 nM of I^125-PA1b, while in the non-specific binding assays 1000 nM of unlabeled AG41 or alanine mutant peptide was added. The level of specific binding (i.e., total binding minus non-specific binding) was estimated based on three replicates. Competitive experiments were performed with 0.4 nM ^125I-PA1b (specific radioactivity of approximately 1000 Ci.mmol^−1) and competition was performed with AG41 and its alanine mutant peptides at concentrations ranging from 0.01 to 1000 nM.
(§1) The experimental Ki and LD5O data were assessed separately by non-linear regression analysis using the SIMFIT software package. Biological results are expressed as mean ± S.E. (standard error).

[1] = test system: Spodoptera frugiperda Sf9 insect cells; test: Viability assay (MTT) on cultured Sf9 insect cells; type: cell-based; conditions: 24 h exposure, 27 °C, each concentration in triplicate, mean ± standard error, SEM
Method: Viability assays were performed on Spodoptera frugiperda Sf9 insect cells in culture using the 3-(4,5-dimethylthiazol-2-yl)-2,5-diphenyltetrazolium bromide (MTT) protocol. Briefly, Sf9 cells lines were grown at 27 °C in Lonza’s culture medium, supplemented with 5% fetal bovine serum (FBS) and 0.1% gentamicin. Sf9 cells were seeded, in 96-well plates, 24 h prior to the experiments (15,000 cells/well) and were exposed to increasing concentrations of AG41 and its alanine mutant peptides for 24 h. Each concentration was performed in triplicate. Cell viability was determined by a colorimetric assay based on the ability of viable cells to reduce MTT. Cells were loaded with MTT solution (0.5 mg ml^−^1) and incubated at 27 °C for 2 h. Cell homogenates were used to measure absorbance at 550 nm using a microplate reader (MR 7000, Dynatech Laboratories Inc., Richmond, CA, USA).
as §1

Row | Sequence | Ki (PA1b receptor) [nM] | Ki (PA1b receptor; SEM) [nM] | LD50 (insect cell toxicity) [1] [nM]
1 | ASCPNVGAVCSPAETKPCGNVKDCRCLPWGLFFGTCINPTG (also: bicyclic or more (positions not given here)) [F13A, single point alanine mutant of AG41 at Phe-13] | > 1000 | – | –
2 | ASCPNVGAVCSPFATKPCGNVKDCRCLPWGLFFGTCINPTG (also: bicyclic or more (positions not given here)) [E14A, single point alanine mutant of AG41 at Glu-14] | – | 1.2 ± 1.3 | –
3 | ASCPNVGAVCSPFETAPCGNVKDCRCLPWGLFFGTCINPTG (disulfide 3-24, 10-26, 18-36) [K16A] | – | 3.6 ± 1.6 | 10.0 ± 4.0
4 | ASCPNVGAVCSPFETKPCGNVADCRCLPWGLFFGTCINPTG (disulfide 3-24, 10-26, 18-36) [K22A] | – | 3.2 ± 1.7 | 14.2 ± 6.3
5 | ASCPNVGAVCSPFETKPCGNVKACRCLPWGLFFGTCINPTG (disulfide 3-24, 10-26, 18-36) [D23A] | – | 1.2 ± 1.6 | 24 ± 9
6 | ASCPNVGAVCSPFETKPCGNVKDCACLPWGLFFGTCINPTG (also: bicyclic or more (positions not given here)) [R25A, single point alanine mutant of AG41 at Arg-25] | > 1000 | – | –
7 | ASCPNVGAVCSPFETKPCGNVKDCRCAPWGLFFGTCINPTG (disulfide 3-24, 10-26, 18-36) [L27A] | – | 486 ± 11 | 907 ± 46
8 | ASCPNVGAVCSPFETKPCGNVKDCRCLPAGLFFGTCINPTG (disulfide 3-24, 10-26, 18-36) [W29A] | – | 36.3 ± 6.7 | 89.0 ± 3.7
9 | ASCPNVGAVCSPFETKPCGNVKDCRCLPWGAFFGTCINPTG (also: bicyclic or more (positions not given here)) [L31A, single point alanine mutant of AG41 at Leu-31] | – | 263 ± 8 | –
10 | ASCPNVGAVCSPFETKPCGNVKDCRCLPWGLAFGTCINPTG (disulfide 3-24, 10-26, 18-36) [F32A] | – | 39.8 ± 15 | 122 ± 12
11 | ASCPNVGAVCSPFETKPCGNVKDCRCLPWGLFAGTCINPTG (disulfide 3-24, 10-26, 18-36) [F33A] | – | 15 ± 4.8 | 210 ± 8
12 | ASCPNVGAVCSPFETKPCGNVKDCRCLPWGLFFGTCINPTG (disulfide 3-24, 10-26, 18-36) [AG41] | – | 1.3 ± 0.6 | 5.6 ± 1.8
